Laboratory results taken from patent publication US20130029928A1 (priority 2010, published 2013).
Where “and” joins values, the source holds several entries; their conditions need not be identical. Identical values can stand only once.

Experiments:
[1] = tested on: PANC-1 cells; test: Transcription profiling of CXR1002-treated PANC-1 cells (ER stress genes, Ingenuity); type: cell-based, human; conditions: PANC-1, 24 hrs at IC15
Description: Representation analysis of the in vitro 4996 signature list identified a number of pathways that were over-represented.

[2] = tested on: CaCo-2; test: SRB cytotoxicity assay 48 hr; type: cell-based, human; conditions: read-out: IC50 Values After 48 Hrs Exposure
Procedure: (§3) The SRB assay was performed according to the method specified by the NIC/NIH. […] Assay replicates were independent in time and up to 4 replicates were performed per cell line.

[3] = tested on: MCF-7; test: SRB cytotoxicity assay 48 hr; type: cell-based, human; conditions: read-out: IC50 Values After 48 Hrs Exposure
Procedure: as §3

[4] = tested on: A375; test: SRB cytotoxicity assay 48 hr; type: cell-based, human; conditions: read-out: IC50 Values After 48 Hrs Exposure
Procedure: as §3

[5] = tested on: CaCo-2; test: ATP depletion cytotoxicity assay 48 hr; type: cell-based, human
Procedure: Assay replicates were independent in time and up to 4 replicates were performed per cell line.
Cells were plated at the optimal plating density for that cell line in 96-well plates and allowed to attach overnight. The next day, the medium was removed and replaced with fresh medium containing the dose ranges of test items. […] There were 3 replicates for each test item concentration.
Following exposure to Test Items, the CellTitre-Glo Luminescent Cell Viability Assay to measure ATP content was performed according to the manufacturer's detailed instructions (Promega Corporation, Technical Bulletin No. 288, and Cell notes, Issue 10, 2004).
Cells were plated at the optimal plating density for that cell line in 96-well plates and allowed to attach overnight. The next day, cells were pre-treated with the inhibitors UO126 or LY294002 (see Tables 18 & 20) for 2 hrs, the medium was removed and replaced with fresh medium containing the appropriate dose of the test item. […] Cells were exposed to these compounds in Roswell Park Memorial Institute (RPMI) medium containing 10% Foetal Calf Serum (FCS) and 2 mM Glutamine at 37° C. and 5% CO2 for 48 hours. There were 3 replicates for each test item concentration.
Following exposure to Test Items, the CellTitre-Glo Luminescent Cell Viability Assay to measure ATP content will be performed according to the manufacturer's detailed instructions (Promega Corporation, Technical Bulletin No. 288, and Cell notes, Issue 10, 2004).

[6] = tested on: MES-SA; test: ATP depletion cytotoxicity assay 48 hr; type: cell-based; conditions: Homo sapiens, Study CXR0798, read-out: IC50 1
Procedure: as §3

[7] = tested on: HT1080; test: ATP depletion cytotoxicity assay 48 hr; type: cell-based; conditions: Homo sapiens, HT-1080, Study CXR0798, read-out: IC50 1
Procedure: as §3

[8] = tested on: panel of human tumour-derived cell lines; test: BrdU incorporation (cell proliferation) in the SRB cell line panel; type: cell-based; conditions: 48 hrs
[9] = PC3 xenograft in nude mice; type: in vivo, nude mouse; conditions: nude, mouse, plasma, intraperitoneal; PC3 model; 25 mg/kg three times weekly; 24 hrs post last dose; Day 29
Procedure: (§1) A parallel experiment was carried out using the prostate tumour cell line PC3.
(§2) These effects are consistent with a transient effect on the liver associated with mild toxicity and reversible liver enlargement. In rodents, this type of effect is usually due to hepatic PPARα activation associated with peroxisome proliferation.

[10] = tested on: PC3 (prostate) xenograft tumours; test: PC3 xenograft in nude mice; type: in vivo, nude mouse
Procedure: as §1, §2

O=C(O)C(F)(F)C(F)(F)C(F)(F)C(F)(F)C(F)(F)C(F)(F)C(F)(F)F [CXR1002]
ATF3 induction [1]: 3 fold
IC50 [2]: 708 ± 159 µM
IC50 [3]: 276 ± 33.2 µM
IC50 [4]: 222 ± 21.2 µM
IC50 ([5]; ATP depletion, 48 hrs, CaCo-2, read-out: IC50 1-4 (independent replicates)): 690 µM and 670 µM
IC50 ([5]; Homo sapiens, Caco-2, 48 h, ATP depletion, 48 hrs, CaCo-2, read-out: IC50 1-4 (independent replicates)): 680 µM
IC50 ([5]; Homo sapiens, Caco-2, 48 h, ATP depletion, 48 hrs, CaCo-2, read-out: IC50 Mean): 680 µM
IC50 ([5]; Homo sapiens, Caco-2, 48 h, Example 7, 48 hour, CaCO2, CXR1002 0-1 mM, U0126 fixed 10 μM where combined, read-out: IC50): 704 µM
IC50 [6]: > 1000 µM
IC50 [7]: > 1000 µM
BrdU incorporation ([8]; 10 μM): No marked effects
BrdU incorporation ([8]; 30 μM): variable
BrdU incorporation ([8]; 300 μM, all but one of the cell lines): Significant suppression of BrdU incorporation
concentration at 24 h [9]: 281 µM
effect on tumours ([10]; 5, 15 and 25 mg/kg i.p.): marked anti-tumour effect
increase in plasma ALT ([10]; PC3-tumour bearing mice): up to 1.8 fold
Absolute Tumour Volume as a Percentage of Saline Control ([10]; PC3, 25 mg/kg i.p., Day 25): 19.14%
effect on body weight ([10]; PC3 model): No marked effects on body weight
liver weight ([10]; PC3 model): increase in liver weight
Terminal / maximum CXR1002 plasma level ([10]; PC3 model, 25 mg/kg three times weekly, 24 hrs post last dose, Day 29): 281 µM
increase in plasma AST ([10]; mice bearing PC3 xenografts): up to 3.5 fold
plasma glucose and triglyceride levels ([10]; tumour-bearing nude mice, PC-3): slight reductions
